Molecular target: BRG1 (Homo sapiens, UniProt P51532)
Test: biochemical
Assay type: binding
Details: BRG1 HTRF IC50 (µM)
Excerpt: IC50 measurements for inhibitors using BRG1 TR-FRET Binding Assay

Chain of BRG1 (P51532 1448-1575): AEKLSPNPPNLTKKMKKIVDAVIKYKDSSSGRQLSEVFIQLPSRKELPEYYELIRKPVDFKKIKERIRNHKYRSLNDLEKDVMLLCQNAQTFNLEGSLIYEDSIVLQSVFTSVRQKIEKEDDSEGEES

Row | IC50 [µM] | Structure (SMILES)
1 | 0.0758 | Nc1nnc(-c2ccccc2O)cc1N1CCC2(CC1)C(=O)Nc1ccccc12 [Example 78, 1'-(3-amino-6-(2-hydroxyphenyl)pyridazin-4-yl)spiro[indoline-3,4'-piperidin]-2-one]
2 | 0.0929 | CN(C)C1CCN(c2cc(-c3ccccc3O)nnc2N)CC1 [Example 91, 2-[6-amino-5-[4-(dimethylamino)-1-piperidyl]pyridazin-3-yl]phenol]
3 | 0.0185 | C[C@H]1CN(c2cc(-c3ccccc3O)nnc2N)CCN1Cc1nccn1C [Example 92, (S)-2-(6-amino-5-(3-methyl-4-((1-methyl-1H-imidazol-2-yl)methyl)piperazin-1-yl)pyridazin-3-yl)phenol]
4 | 0.0238 | C[C@@H]1CN(c2cc(-c3ccccc3O)nnc2N)CCN1Cc1nccn1C [Example 93, (R)-2-(6-amino-5-(3-methyl-4-((1-methyl-1H-imidazol-2-yl)methyl)piperazin-1-yl)pyridazin-3-yl)phenol]
5 | 0.122 | CC(C)n1cc(CN2CCN(c3cc(-c4ccccc4O)nnc3N)CC2)cn1 [Example 94, 2-[6-amino-5-[4-[(1-isopropylpyrazol-4-yl)methyl]piperazin-1-yl]pyridazin-3-yl]phenol]
6 | 0.0569 | N#Cc1cccc(CN2CCN(c3cc(-c4ccccc4O)nnc3N)CC2)c1 [Example 96, 3-[[4-[3-amino-6-(2-hydroxyphenyl)pyridazin-4-yl]piperazin-1-yl]methyl]benzonitrile]
7 | 0.0714 | Nc1nnc(-c2ccccc2O)cc1N1CCN(Cc2ncco2)CC1 [Example 97, 2-[6-amino-5-[4-(oxazol-2-ylmethyl)piperazin-1-yl]pyridazin-3-yl]phenol]
8 | 0.0796 | Nc1nnc(-c2ccccc2O)cc1N1CCN(Cc2ccncc2)CC1 [Example 98, 2-[6-amino-5-[4-(4-pyridylmethyl)piperazin-1-yl]pyridazin-3-yl]phenol]
9 | 0.0324 | Cn1ccnc1CN1CCN(c2cc(-c3ccccc3O)nnc2N)CC1 [Example 99, 2-[6-amino-5-[4-[(1-methylimidazol-2-yl)methyl]piperazin-1-yl]pyridazin-3-yl]phenol]
10 | 0.0653 | Cc1cc(CN2CCN(c3cc(-c4ccccc4O)nnc3N)CC2)no1 [Example 101, 2-[6-amino-5-[4-[(5-methylisoxazol-3-yl)methyl]piperazin-1-yl]pyridazin-3-yl]phenol]
11 | 0.0259 | Nc1nnc(-c2ccccc2O)cc1N1CCN(Cc2n[nH]c3ccccc23)CC1 [Example 102, 2-[6-amino-5-[4-(1H-indazol-3-ylmethyl)piperazin-1-yl]pyridazin-3-yl]phenol]
12 | 0.0289 | Cn1ncc2c(CN3CCN(c4cc(-c5ccccc5O)nnc4N)CC3)cccc21 [Example 103, 2-[6-amino-5-[4-[(1-methylindazol-4-yl)methyl]piperazin-1-yl]pyridazin-3-yl]phenol]
13 | 0.0569 | Cc1nc(CN2CCN(c3cc(-c4ccccc4O)nnc3N)CC2)co1 [Example 104, 2-[6-amino-5-[4-[(2-methyloxazol-4-yl)methyl]piperazin-1-yl]pyridazin-3-yl]phenol]
14 | 0.0279 | Cn1ncc2cc(CN3CCN(c4cc(-c5ccccc5O)nnc4N)CC3)ccc21 [Example 105, 2-[6-amino-5-[4-[(1-methylindazol-5-yl)methyl]piperazin-1-yl]pyridazin-3-yl]phenol]
15 | 0.689 | CC(C)(C)OC(=O)N1CCc2cc(CN3CCN(c4cc(-c5ccccc5O)nnc4N)CC3)ccc21 [Example 106, tert-butyl 5-[[4-[3-amino-6-(2-hydroxyphenyl)pyridazin-4-yl]piperazin-1-yl]methyl]indoline-1-carboxylate]
16 | 0.0877 | Cn1cc(CN2CCN(c3cc(-c4ccccc4O)nnc3N)CC2)cn1 [Example 107, 2-[6-amino-5-[4-[(1-methylpyrazol-4-yl)methyl]piperazin-1-yl]pyridazin-3-yl]phenol]
17 | 0.0176 | CC1CN(c2cc(-c3ccccc3O)nnc2N)CCN1S(=O)(=O)c1ccccc1 (centres unmarked) [Example 109, 2-(6-amino-5-(3-methyl-4-(phenylsulfonyl)piperazin-1-yl)pyridazin-3-yl)phenol]
18 | 0.0219 | CCS(=O)(=O)N1CCN(c2cc(-c3ccccc3O)nnc2N)CC1C (centres unmarked) [Example 110, 2-(6-amino-5-(4-(ethylsulfonyl)-3-methylpiperazin-1-yl)pyridazin-3-yl)phenol]
19 | 0.0197 | CC1CN(c2cc(-c3ccccc3O)nnc2N)CCN1S(=O)(=O)C1CC1 (centres unmarked) [Example 111, 2-(6-amino-5-(4-(cyclopropylsulfonyl)-3-methylpiperazin-1-yl)pyridazin-3-yl)phenol]
20 | 0.0307 | CC1(C)CN(c2cc(-c3ccccc3O)nnc2N)CCN1S(C)(=O)=O [Example 112, 2-(6-amino-5-(3,3-dimethyl-4-(methylsulfonyl)piperazin-1-yl)pyridazin-3-yl)phenol]
21 | 0.0535 | COCCS(=O)(=O)N1CCN(c2cc(-c3ccccc3O)nnc2N)C[C@H]1C [Example 117, (R)-2-(6-amino-5-(4-((2-methoxyethyl)sulfonyl)-3-methylpiperazin-1-yl)pyridazin-3-yl)phenol]
22 | 0.0281 | C[C@@H]1CN(c2cc(-c3ccccc3O)nnc2N)CCN1S(=O)(=O)c1nccn1C [Example 118, (R)-2-(6-amino-5-(3-methyl-4-((1-methyl-1H-imidazol-2-yl)sulfonyl)piperazin-1-yl)pyridazin-3-yl)phenol]
23 | 0.0879 | Cc1noc(C)c1C(=O)N1CCN(c2cc(-c3ccccc3O)nnc2N)CC1C (centres unmarked) [Example 123, (4-(3-amino-6-(2-hydroxyphenyl)pyridazin-4-yl)-2-methylpiperazin-1-yl)(3,5-dimethylisoxazol-4-yl)methanone]
24 | 0.0258 | CC1CN(c2cc(-c3ccccc3O)nnc2N)CCN1C(=O)C1CC1c1ccccc1 (centres unmarked) [Example 124, (4-(3-amino-6-(2-hydroxyphenyl)pyridazin-4-yl)-2-methylpiperazin-1-yl)(2-phenylcyclopropyl)methanone]
25 | 0.0426 | CC1CN(c2cc(-c3ccccc3O)nnc2N)CCN1C(=O)Cc1ccccn1 (centres unmarked) [Example 125, 1-(4-(3-amino-6-(2-hydroxyphenyl)pyridazin-4-yl)-2-methylpiperazin-1-yl)-2-(pyridin-2-yl)ethan-1-one]

Row | Structure (SMILES) | IC50 [µM]
26 | CNC(=O)CN1C2CCC1CN(c1cc(-c3ccccc3O)nnc1N)C2 [Example 79, 2-(3-(3-amino-6-(2-hydroxyphenyl)pyridazin-4-yl)-3,8-diazabicyclo[3.2.1]octan-8-yl)-N-methylacetamide] | 0.139
27 | Nc1nnc(-c2ccccc2O)cc1N1CC2CCC(C1)N2c1ccc(C(=O)O)nc1 [Example 88, 5-(3-(3-amino-6-(2-hydroxyphenyl)pyridazin-4-yl)-3,8-diazabicyclo[3.2.1]octan-8-yl)picolinic acid] | 0.218
28 | CC(C)(O)C(=O)N1C2CCC1CN(c1cc(-c3ccccc3O)nnc1N)C2 [Example 120, 1-(3-(3-amino-6-(2-hydroxyphenyl)pyridazin-4-yl)-3,8-diazabicyclo[3.2.1]octan-8-yl)-2-hydroxy-2-methylpropan-1-one] | 0.0444
29 | CN(C)C(=O)N1C2CCC1CN(c1cc(-c3ccccc3O)nnc1N)C2 [Example 121, 3-(3-amino-6-(2-hydroxyphenyl)pyridazin-4-yl)-N,N-dimethyl-3,8-diazabicyclo[3.2.1]octane-8-carboxamide] | 0.0225

Source: patent EP3262036B1, “THERAPEUTIC PYRIDAZINE COMPOUNDS AND USES THEREOF” (priority 2015, dated 2016)
